The numbers were not newly measured in article PMC10817174, “Integrated drug response prediction models pinpoint repurposed drugs with effectiveness against rhabdomyosarcoma” (PLOS ONE, 2024), which cites them from elsewhere.

Series [1] deals with GDSC-RD cell line. The note with it: Table S2, published drug response ref Iorio et al. (2016); cited from earlier work.
In series [2] the test system is GDSC-SJCRH30 cell line. The note with it: Table S2, published drug response ref Iorio et al. (2016); cited from earlier work.

Consider `CCN1CCC(n2cc(CNc3cc(Cl)c4ncc(C#N)c(Nc5ccc(F)c(Cl)c5)c4c3)nn2)CC1` [KIN001-266], for which the Iorio_RD entry in series [1] was “R”. For the same molecule, the Iorio_SJCRH30 result in series [2] is reported as “R”.
Consider `O=C(O)CNC(=O)c1c(O)c2ccccc2n(Cc2ccccc2)c1=O` [IOX2], for which the Iorio_RD entry in series [1] is on record as “R”. In addition, the Iorio_SJCRH30 result in series [2] is “R”.
On to `[H]/N=C(/N)N/C(=N/[H])NCCc1ccccc1` [Phenformin], for which the Iorio_RD entry in series [1] is listed as “R”. Also, the Iorio_SJCRH30 result in series [2] was “R”.
On to `COc1cc2nccc(Oc3ccc(NC(=O)C4(C(=O)Nc5ccc(F)cc5)CC4)cc3)c2cc1OC` [XL-184], for which the Iorio_RD entry in series [1] was “R”. Besides, the Iorio_SJCRH30 entry in series [2] is on record as “R”.
As to `CCC/C=C/C=C/C(=O)O[C@H]1/C(=C/C(=O)OC)C[C@H]2C[C@H]([C@@H](C)O)OC(=O)C[C@H](O)C[C@@H]3C[C@H](OC(C)=O)C(C)(C)[C@](O)(C[C@@H]4C/C(=C/C(=O)OC)C[C@H](/C=C/C(C)(C)[C@]1(O)O2)O4)O3` [Bryostatin-1], in series [1], the Iorio_RD result is listed as “R”. The Iorio_SJCRH30 entry in series [2] is “R”.
Take `COc1ccc(C(=O)CC2(O)C(=O)Nc3c(Cl)ccc(Cl)c32)cc1` (centres unmarked) [YK-4-279]: in series [1], the Iorio_RD entry is “R”. Besides, the Iorio_SJCRH30 result in series [2] is on record as “R”.
Take `CC(C)[C@H](C(=O)Nc1ccc(C(=O)NO)cc1)c1ccccc1` [AR-42]: in series [1], the Iorio_RD result is recorded as “R”. Also, the Iorio_SJCRH30 entry in series [2] was “R”.
Regarding `CC(C)(C)OC(=O)Nc1ccc(-c2cc(C(=O)NCCCCCCC(=O)NO)no2)cc1` [CAY10603], the Iorio_RD result in series [1] is reported as “R”. The Iorio_SJCRH30 entry in series [2] is “R”.
In the case of `CCNC(=O)c1noc(-c2cc(C(C)C)c(O)cc2O)c1-c1ccc(CN2CCOCC2)cc1` [AUY922], the Iorio_RD result in series [1] was “R”. For the same molecule, in series [2], the Iorio_SJCRH30 result is given as “R”.
`CC[C@H](Nc1ncnc2[nH]cnc12)c1nc2cccc(F)c2c(=O)n1-c1ccccc1` [CAL-101]: the Iorio_RD entry in series [1] was “R”. The Iorio_SJCRH30 result in series [2] is listed as “R”.
For the molecule `COC(=O)CNC(=O)C(=O)OC` [DMOG], in series [1], the Iorio_RD entry is on record as “R”. Further, in series [2], the Iorio_SJCRH30 entry is on record as “R”.
For `C=CCc1cccc(/C=N/NC(=O)CN2CCN(Cc3ccccc3)CC2)c1O` [PAC-1], the Iorio_RD entry in series [1] is recorded as “R”. The Iorio_SJCRH30 entry in series [2] is reported as “R”.
Regarding `CCc1cc(Nc2nccc(-c3c(-c4ccc(OC)c(C(=O)Nc5c(F)cccc5F)c4)nc4ccccn34)n2)c(OC)cc1N1CCC(N2CCN(S(C)(=O)=O)CC2)CC1` [GSK-1904529A], in series [1], the Iorio_RD result is recorded as “R”. Further, the Iorio_SJCRH30 entry in series [2] was “R”.
With `CCc1cc(-c2n[nH]c(C)c2-c2ccc3c(c2)OCCO3)c(O)cc1O` [CCT018159], the Iorio_RD entry in series [1] is “R”. Besides, the Iorio_SJCRH30 entry in series [2] is “R”.
Consider `C[C@@]1(C(=O)Nc2ccc(F)nc2)CCCN1c1nc(Nc2cc(C3CC3)n[nH]2)c2cccn2n1` [BMS-754807], for which the Iorio_RD entry in series [1] is on record as “S”. The Iorio_SJCRH30 entry in series [2] is listed as “S”.
For the molecule `COc1nc(C)cnc1NS(=O)(=O)c1cccnc1-c1ccc(-c2nnco2)cc1` [Zibotentan], in series [1], the Iorio_RD entry is reported as “R”. Moreover, in series [2], the Iorio_SJCRH30 entry was “R”.
For the molecule `COc1ccccc1S(=O)(=O)Nc1ccc2c(c1)CN(C)C(=O)N2` [PFI-1], the Iorio_RD result in series [1] is on record as “R”. Besides, in series [2], the Iorio_SJCRH30 entry is “R”.
With `COCCn1c2c([n+](Cc3cnccn3)c1C)C(=O)c1ccccc1C2=O` [YM155], the Iorio_RD entry in series [1] is “R”. Moreover, the Iorio_SJCRH30 entry in series [2] is on record as “R”.
Regarding `O=C(Nc1cccc(Nc2ncc(Br)c(NCCc3cnc[nH]3)n2)c1)N1CCCC1` [BX-912], the Iorio_RD result in series [1] is reported as “R”. Also, the Iorio_SJCRH30 result in series [2] is on record as “R”.
Regarding `COc1ccc(COc2ccc(Cc3cnc(N)nc3N)cc2OC)cc1` [GW-2580], the Iorio_RD entry in series [1] was “R”. The Iorio_SJCRH30 entry in series [2] is given as “R”.
Turning to `C/C(O)=C(\C#N)C(=O)Nc1cc(Br)ccc1Br` [LFM-A13], the Iorio_RD result in series [1] was “R”. The Iorio_SJCRH30 result in series [2] was “R”.
As to `CC(C)=CC[C@@H](O)C1=CC(=O)c2c(O)ccc(O)c2C1=O` [Shikonin], the Iorio_RD entry in series [1] is on record as “R”. For the same molecule, in series [2], the Iorio_SJCRH30 entry is listed as “R”.
With `Oc1ccc2ccccc2c1SSc1c(O)ccc2ccccc12` [IPA-3], in series [1], the Iorio_RD entry is recorded as “R”. Further, in series [2], the Iorio_SJCRH30 entry is listed as “R”.
In the case of `O=C(c1ccc(C(=O)N2CCC(N3CCCC3)CC2)c(Nc2ccccc2)c1)N1CCC(N2CCCC2)CC1` [UNC1215], in series [1], the Iorio_RD result is on record as “R”. The Iorio_SJCRH30 entry in series [2] is “S”.
Consider `Cc1ccc(C(=O)Nc2ccc(CN3CCN(C)CC3)c(C(F)(F)F)c2)cc1C#Cc1cnc2cccnn12` [AP-24534], for which, in series [1], the Iorio_RD entry is listed as “R”. In series [2], the Iorio_SJCRH30 result is reported as “R”.
With `O=C1NC(=O)/C(=C\c2ccc3nccnc3c2)S1` [AS605240], the Iorio_RD entry in series [1] is given as “R”. Further, the Iorio_SJCRH30 entry in series [2] is “R”.
As for `CC(C)c1ccccc1Cc1cc(C(=O)Nc2ccc(S(=O)(=O)c3ccccc3C(C)(C)C)cc2)c(O)c(O)c1O` [TW-37], the Iorio_RD entry in series [1] is listed as “R”. Moreover, the Iorio_SJCRH30 entry in series [2] is reported as “R”.
`NC(=O)Nc1sc(-c2ccc(F)cc2)cc1C(N)=O` [TPCA-1]: the Iorio_RD entry in series [1] is given as “R”. The Iorio_SJCRH30 entry in series [2] is recorded as “R”.
For `CCCCCCCCCCCC1=C(O)C(=O)C=C(O)C1=O` [Embelin], the Iorio_RD entry in series [1] was “R”. Besides, the Iorio_SJCRH30 entry in series [2] was “R”.
Consider `CC/C(=C(\c1ccccc1)c1ccc(OCCN(C)C)cc1)c1ccccc1` [Tamoxifen], for which the Iorio_RD result in series [1] is “R”. In series [2], the Iorio_SJCRH30 entry is “R”.
In the case of `CC(C)CC(=O)Nc1[nH]nc2c1CN(C(=O)C1CCN(C)CC1)C2(C)C` [PHA-793887], the Iorio_RD entry in series [1] was “R”. In addition, the Iorio_SJCRH30 result in series [2] is “R”.
As for `CC1(C)CC(=O)c2c(C(F)(F)F)nn(-c3ccc(C(N)=O)c(N[C@H]4CC[C@H](O)CC4)c3)c2C1` [SNX-2112], the Iorio_RD result in series [1] is reported as “R”. Also, the Iorio_SJCRH30 result in series [2] is listed as “R”.
Take `COc1cc(/C=C/C(=O)N2CCC=CC2=O)cc(OC)c1OC` [piperlongumine]: the Iorio_RD result in series [1] is “S”. Moreover, the Iorio_SJCRH30 result in series [2] is “R”.
For `NCC(=O)Nc1ccc(-n2nc(C(F)(F)F)cc2-c2ccc3c(ccc4ccccc43)c2)cc1` [OSU-03012], the Iorio_RD entry in series [1] is given as “R”. In addition, the Iorio_SJCRH30 entry in series [2] is “R”.
For the molecule `Cn1cncc1[C@@](N)(c1ccc(Cl)cc1)c1ccc2c(c1)c(-c1cccc(Cl)c1)cc(=O)n2C` [Tipifarnib], the Iorio_RD entry in series [1] is “R”. Besides, the Iorio_SJCRH30 entry in series [2] is on record as “R”.
For `O=C(Nc1ccc(OC(F)(F)F)cc1)c1sccc1NCc1ccnc2ccccc12` [OSI-930], in series [1], the Iorio_RD entry is recorded as “R”. The Iorio_SJCRH30 entry in series [2] is recorded as “R”.
For the molecule `Nc1[nH]nc2nnc(-c3c(-c4ccccc4)nn4ccccc34)cc12` [FR-180204], the Iorio_RD result in series [1] was “R”. Moreover, in series [2], the Iorio_SJCRH30 entry is reported as “R”.
Take `Oc1nc(-c2ccc(C(F)(F)F)cc2)nc2c1CSCC2` [XAV-939]: the Iorio_RD result in series [1] is reported as “R”. Besides, the Iorio_SJCRH30 entry in series [2] was “R”.
As to `C=CC(=O)Nc1cc(-n2c(=O)ccc3cnc4ccc(-c5cn[nH]c5)cc4c32)ccc1C` [QL-X-138], the Iorio_RD result in series [1] was “R”. Moreover, the Iorio_SJCRH30 entry in series [2] is “R”.
Take `c1ccc2c(CCNc3ccc(Nc4ccncc4)cc3)c[nH]c2c1` [JNJ-26854165]: the Iorio_RD entry in series [1] is recorded as “R”. Further, the Iorio_SJCRH30 entry in series [2] was “R”.
With `CC(=O)Nc1nc(C)c(-c2ccc(Cl)c(S(=O)(=O)NCCO)c2)s1` [PIK-93], in series [1], the Iorio_RD result is listed as “R”. In addition, the Iorio_SJCRH30 entry in series [2] is on record as “R”.
As for `COC1=CC(c2cc3ccccc3[nH]2)=N/C1=C\c1[nH]c(C)cc1C` [Obatoclax-Mesylate], in series [1], the Iorio_RD entry is “R”. Also, the Iorio_SJCRH30 result in series [2] is listed as “R”.
For the molecule `Cn1ncnc1[C@H]1c2n[nH]c(=O)c3cc(F)cc(c23)N[C@@H]1c1ccc(F)cc1` [BMN-673], the Iorio_RD result in series [1] was “R”. For the same molecule, the Iorio_SJCRH30 entry in series [2] is listed as “S”.
As for `C=C(c1ccc(C(=O)O)cc1)c1cc2c(cc1C)C(C)(C)CCC2(C)C` [Bexarotene], the Iorio_RD result in series [1] is reported as “R”. In addition, in series [2], the Iorio_SJCRH30 result is on record as “R”.
As for `COc1cccc2c1C(=O)c1c(O)c3c(c(O)c1C2=O)C[C@@](O)(C(=O)CO)C[C@@H]3O[C@H]1C[C@H](N)[C@H](O)[C@H](C)O1` [Doxorubicin], the Iorio_RD result in series [1] is reported as “R”. Besides, the Iorio_SJCRH30 entry in series [2] is listed as “R”.
As to `O=c1[nH]cc(F)c(=O)[nH]1` [5-Fluorouracil], the Iorio_RD result in series [1] is given as “R”. Further, in series [2], the Iorio_SJCRH30 result is “R”.
In the case of `COCC(=O)NC/C=C/c1ccc2ncnc(Nc3ccc(Oc4ccc(C)nc4)c(C)c3)c2c1` [CP724714], in series [1], the Iorio_RD result is “R”. The Iorio_SJCRH30 entry in series [2] is listed as “R”.
As for CCT007093, in series [1], the Iorio_RD result was “R”. Further, in series [2], the Iorio_SJCRH30 entry is “R”.

B1: rTRAIL: GDSC anti-cancer compound (protein, UniProt P50591 1-281, looked up)
Tumor necrosis factor ligand …: MAMMEVQGGPSLGQTCVLIVIFTVLLQSLCVAVTYVYFTNELKQMQDKYSKSGIACFLKEDDSYWDPNDEESMNSPCWQVKWQLRQLVRKMILRTSEETISTVQEKQQNISPLVRERGPQRVAAHITGTRGRSNTLSSPNSKNEKALGRKINSWESSRSGHSFLSNLHLRNGELVIHEKGFYYIYSQTYFRFQEEIKENTKNDKQMVQYIYKYTSYPDPILLMKSARNSCWSKDAEYGLYSIYQGGIFELKENDRIFVSVTNEHLIDMDHEASFFGAFLVG
Turning to B1, the Iorio_RD result in series [1] was “S”. Besides, the Iorio_SJCRH30 entry in series [2] is “R”.
